ChEMBL document CHEMBL1201862, “PubChem BioAssay data set” (2004)
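96-well plates; 48 h exposure; 5 concentrations. Endpoints by linear interpolation between flanking doses. Not reached: highest tested concentration assigned. Here, GI50 denotes the concentration required for 50% inhibition of growth.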 Active and inactive are the calls of the source. Rule as the data show it: active = GI50 up to about 1.1 µM and inactive = higher.

What was measured:
Assay in all cases: inhibition of tumour cell growth, NCI panel, 48 h
SNB-19 = tested on: SNB-19
RPMI-8226 = tested on: RPMI-8226
MDA-N = tested on: MDA-N
OVCAR-5 = tested on: OVCAR-5
K562 = tested on: K562
DU-145 = tested on: DU-145
NCI-H226 = tested on: NCI-H226
MOLT-4 = tested on: MOLT-4
SF-268 = tested on: SF-268
Hs-578T = tested on: Hs-578T
OVCAR-8 = tested on: OVCAR-8
HOP-62 = tested on: HOP-62
UACC-257 = tested on: UACC-257
UO-31 = tested on: UO-31
SK-MEL-2 = tested on: SK-MEL-2
IGROV-1 = tested on: IGROV-1
HCT-15 = tested on: HCT-15
SW-620 = tested on: SW-620
SK-MEL-28 = tested on: SK-MEL-28
HOP-18 = tested on: HOP-18

Measured: GI50

NCCc1c[nH]c2ccc(OC(=O)C(=O)O)cc12
inactive: SNB-19 > 100 µM | RPMI-8226 > 100 µM | MDA-N > 100 µM | OVCAR-5 > 100 µM | K562 > 100 µM | DU-145 > 100 µM | NCI-H226 > 100 µM | MOLT-4 > 100 µM | SF-268 > 100 µM | Hs-578T > 100 µM | OVCAR-8 > 100 µM | HOP-62 > 100 µM | UACC-257 > 100 µM | UO-31 > 100 µM | SK-MEL-2 > 100 µM | IGROV-1 > 100 µM | SW-620 > 100 µM | SK-MEL-28 > 100 µM
> 100 µM: HCT-15

O=C(/C=C/C(Cl)(Cl)Cl)Nc1ccc(Cl)cc1
inactive: SNB-19 17.7 µM | RPMI-8226 2.09 µM | MDA-N 3.44 µM | OVCAR-5 13.5 µM | K562 1.62 µM | DU-145 16.9 µM | NCI-H226 15.1 µM | MOLT-4 1.64 µM | SF-268 3.23 µM | Hs-578T 25.4 µM | OVCAR-8 14.9 µM | HOP-62 4.94 µM | UACC-257 18.3 µM | SK-MEL-2 8.59 µM | SW-620 3.38 µM | SK-MEL-28 18.3 µM
active: UO-31 0.698 µM | IGROV-1 0.452 µM
3.56 µM: HCT-15

COc1cc(C2c3cc4c(cc3OC(N3CCCC3)C2C)OCO4)cc(OC)c1OC (centres undefined)
0.526 µM: HCT-15
active: RPMI-8226 1.08 µM | MDA-N 0.167 µM | OVCAR-5 1.09 µM | K562 0.361 µM | DU-145 0.571 µM | NCI-H226 0.433 µM | MOLT-4 1.08 µM | Hs-578T 0.445 µM | OVCAR-8 0.832 µM | HOP-62 0.596 µM | UACC-257 1.07 µM | SK-MEL-2 0.394 µM | IGROV-1 0.813 µM | SW-620 0.366 µM
inactive: SNB-19 1.21 µM | SF-268 2.34 µM | UO-31 1.91 µM | SK-MEL-28 5.43 µM

Cc1cc(N2CCOCC2)nc2ccc(Cc3ccc4nc(N5CCOCC5)cc(C)c4c3)cc12
41.8 µM: HCT-15
inactive: SNB-19 49.9 µM | RPMI-8226 20.2 µM | MDA-N 36.6 µM | OVCAR-5 > 100 µM | K562 27 µM | DU-145 > 100 µM | NCI-H226 33.3 µM | MOLT-4 28.8 µM | SF-268 > 100 µM | Hs-578T > 100 µM | OVCAR-8 57.5 µM | HOP-62 > 100 µM | UACC-257 25.6 µM | UO-31 38.2 µM | SK-MEL-2 63.5 µM | IGROV-1 > 100 µM | SW-620 35.9 µM | SK-MEL-28 39.4 µM

O=c1[nH]nc(-c2ccc([N+](=O)[O-])cc2)[nH]1
inactive: SNB-19 > 100 µM | RPMI-8226 > 100 µM | MDA-N > 100 µM | OVCAR-5 > 100 µM | K562 > 100 µM | DU-145 > 100 µM | NCI-H226 > 100 µM | MOLT-4 > 100 µM | SF-268 > 100 µM | Hs-578T > 100 µM | OVCAR-8 > 100 µM | HOP-62 > 100 µM | UACC-257 > 100 µM | UO-31 > 100 µM | SK-MEL-2 > 100 µM | IGROV-1 > 100 µM | SW-620 > 100 µM | SK-MEL-28 > 100 µM
> 100 µM: HCT-15

Cn1c2c(c3ccccc31)CCN(CCN1CCN(c3ccccc3)CC1)C2=O
> 100 µM: HCT-15
inactive: RPMI-8226 > 100 µM | K562 > 100 µM | MOLT-4 > 100 µM | HOP-18 55 µM | SF-268 > 100 µM | OVCAR-8 > 100 µM | UO-31 > 100 µM | IGROV-1 > 100 µM | SW-620 > 100 µM | SK-MEL-28 > 100 µM

N=C(N)N/N=C/c1ccc(O)c(C(=O)O)c1
inactive: SNB-19 > 100 µM | RPMI-8226 > 100 µM | MDA-N > 100 µM | OVCAR-5 > 100 µM | K562 > 100 µM | DU-145 > 100 µM | NCI-H226 > 100 µM | MOLT-4 > 100 µM | SF-268 > 100 µM | Hs-578T > 100 µM | OVCAR-8 > 100 µM | HOP-62 > 100 µM | UACC-257 > 100 µM | UO-31 > 100 µM | SK-MEL-2 > 100 µM | IGROV-1 > 100 µM | SW-620 > 100 µM | SK-MEL-28 > 100 µM
> 100 µM: HCT-15

CN(C)CCCNc1ccc([N+](=O)[O-])c2nc3ccccc3c(N)c12
inactive: OVCAR-5 2.49 µM | NCI-H226 5.14 µM | Hs-578T 3.33 µM | HOP-62 2.36 µM | UACC-257 1.63 µM | SK-MEL-2 1.38 µM | SK-MEL-28 2.44 µM
active: SNB-19 0.635 µM | RPMI-8226 0.266 µM | MDA-N 0.458 µM | K562 0.312 µM | DU-145 0.308 µM | MOLT-4 0.278 µM | SF-268 0.839 µM | OVCAR-8 0.483 µM | UO-31 0.942 µM | IGROV-1 0.659 µM | SW-620 0.22 µM
0.423 µM: HCT-15
